From US4198415A, “Prolactin inhibiting octahydro pyrazolo[3,4-g]quinolines” (Eli Lilly and Company, priority 1979, dated 1980)
Where a name gives a salt, the structure may show the parent alone.

How the values were obtained:
[1] = test system: 6-hydroxydopamine-lesioned rats; experiment: turning behavior in 6-hydroxydopamine-lesioned rats (rat turning test, Parkinsonism); assay type: in vivo; details: intraperitoneal; for Average Number of Turns/rat: first 15 minutes after end of latency period
Description: In this test, nigroneostriatal-lesioned rats are employed, as prepared by the procedure of Ungerstedt and Arbuthnott, Brain Res, 24, 485 (1970). A compound having dopamine agonist activity causes the rats to turn in circles contralateral to the side of the lesion. After a latency period, which varies from compound to compound, the number of turns is counted over a 15-minute period.
The compounds were dissolved in water and the aqueous solution injected into the rat by the intraperitoneal route at dose levels of 1 mg/kg. and 100 mcg/kg.

prolactin = experiment: inhibition of prolactin secretion in reserpine-treated male rats (serum prolactin); assay type: in vivo, rat (Sprague-Dawley); details: intraperitoneal, one hour after treatment, reserpine-pretreated rats
Description: Adult male rats of the Sprague-Dawley strain weighing about 200 g. were housed in an air-conditioned room with controlled lighting (lights on 6 a.m.-8 p.m.) and fed lab chow and water ad libitum. Each rat received an intraperitoneal injection of 2.0 mg. of reserpine in aqueous suspension 18 hours before administration of the test drug. The purpose of the reserpine was to keep prolactin levels uniformly elevated. The compounds under test were dissolved in 10 percent ethanol, and were injected intraperitoneally at doses of 50 mcg/kg and 0.5 and 5 mg/kg. Each compound was administered at each dose level to a group of 10 rats, and a control group of 10 intact males received an equivalent amount of 10 percent ethanol. One hour after treatment, all rats were killed by decapitation, and 150 μl aliquots of serum were assayed for prolactin.

[2] = intraperitoneal lethality (LD50); assay type: in vivo
Description: In using the compounds of this invention to inhibit prolactin secretion or to treat Parkinson's syndrome or for other pharmacologic action, a compound according to Formula Ia or Ib above in which R is C1 -C3 alkyl or allyl and R^1 is H or CH2 X where X is OCH3, SCH3, SO2 CH3, CN or CONH2, or a salt thereof with a pharmaceutically-acceptable acid, is administered to a subject suffering from Parkinsonism or in need of having his or her prolactin level reduced in an amount effective to treat Parkinsonism or to reduce prolactin. Oral administration is preferred. If parenteral administration is used, the injection is preferably by the subcutaneous route using an appropriate pharmaceutical formulation. […] In particular, with intravenous or intramuscular administration, a water soluble pharmaceutically-acceptable salt is employed. For oral administration, the compound either as the free base or in the form of a salt thereof, can also be mixed with standard pharmaceutical excipients and loaded into empty telescoping gelatin capsules or pressed into tablets. The oral dosage range is from about 0.01 to 10 mg./kg. of mammalian weight and the parenteral dose range from about 0.0025 to 2.5 mg./kg.

SMILES	% of Rats Exhibiting Turning Behavior ([1]; 1 mg./kg.) [%]	Average Number of Turns/rat ([1]; 1 mg./kg.) [turns/rat]	% of Rats Exhibiting Turning Behavior ([1]; 100 mcg./kg.) [%]	Average Number of Turns/rat ([1]; 100 mcg./kg.) [turns/rat]	Percent Prolactin Inhibition (prolactin; 0.5 mg/kg) [%]	Percent Prolactin Inhibition (prolactin; 5 mg/kg) [%]	other results
CCCN1CC(CSC)CC2Cc3n[nH]cc3CC21 (mixture of isomers) [trans-dl-5-n-Propyl-7-methylmercaptomethyl-4,4a,5,6,7,8,8a,9-octahydro-1H and 2H-pyrazolo[3,4-g]quinoline dihydrochloride]	100	81	50	67	–	–	–
CCCN1CC(CSC)CC2Cc3n[nH]cc3CC21 (mixture of isomers) [trans-dl-5-n-Propyl-7-methylmercaptomethyl-4,4a,5,6,7,8,8a,9-octahydro-1H and 2H-pyrazolo[3,4-g]quinoline]	–	–	–	–	48	73	–
C=CCN1CCC[C@H]2Cc3n[nH]cc3C[C@@H]21 (relative stereo) [Trans-dl-5-allyl-4,4a,5,6,7,8,8a,9-octahydro-2-H(and 1H)-pyrazolo[3,4-g]quinoline dihydrochloride]	100	165	0	0	–	–	–
CN1CCC[C@H]2Cc3n[nH]cc3C[C@@H]21 (relative stereo) [trans-dl-5-methyl-4,4a,5,6,7,8,8a,9-octahydro-1H-(and 2H)-pyrazolo[3,4-g]quinoline dihydrochlorides]	–	–	–	–	42	84	–
CCCN1CCC[C@H]2Cc3[nH]ncc3C[C@@H]21 (relative stereo) [trans-dl-5-n-propyl-4,4a,5,6,7,8,8a,9-octahydro-1H and 2H-pyrazolo[3,4-g]quinoline dihydrochloride]	–	–	–	–	–	–	LD50 ([2]; in vivo, ip, intraperitoneal): 100 to 300 mg/kg; deaths ([2]; intraperitoneal dosages of 300 mg./kg.): fatal; deaths ([2]; intraperitoneal dosages of 10-100 mg./kg.): no deaths
